In patent US10208033B2, “β-carboline, dihydro-β-carboline and tetrahydro-β-carboline alkaloid derivatives and preparation methods same and use in aspects of preventing and treating plant viruses, fungicides and insecticides” (NANKAI UNIVERSITY, priority 2013, dated 2019):

How the values were obtained:
Macrophoma kawatsukai = experiment: Fungicidal (bactericidal) activity in vitro, PDA colony diameter; format: cell-based; details: 50 mg/kg
Fusarium graminearumt = experiment: microbe, parasite or virus in culture; format: cell-based; details: 50 mg/kg
Bipolaria maydis = experiment: organism not typed; format: cell-based; details: 50 mg/kg
[1] = tested on: tobacco mosaic virus (TMV); experiment: Anti-TMV in vivo protective effect; set-up: species or system tobacco mosaic virus (host Nicotiana tabacum L.cv.Xanthi NN)
Alternaria solani = experiment: Fungicidal (bactericidal) activity in vitro, PDA colony diameter; format: cell-based; details: 50 mg/kg
[2] = tested on: tobacco mosaic virus (TMV); experiment: Anti-TMV in vivo therapeutic effect; set-up: species or system tobacco mosaic virus (host Nicotiana tabacum L.cv.Xanthi NN)
mosquito larvae = experiment: whole plant or invertebrate; details: concentration 10 mg/kg, 24 h
Summary of the method: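 Compound dissolved in acetone (or other solvent) to a 1000 ppm stock and diluted in water to 5 ppm. Ten Culex pipiens pallens larvae at the start of the fourth instar, laboratory-reared, added per beaker; solvent-only aqueous control.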

[3] = tested on: tobacco mosaic virus (TMV); experiment: Anti-TMV in vitro effect (half-leaf soaking); format: cell-based, tobacco mosaic virus (host Nicotiana tabacum L.cv.Xanthi NN)
cotton bollworms = experiment: whole plant or invertebrate; details: concentration 600 mg/kg
Procedure: Experimental method of cotton bollworms: feed and drug mixing method: measure 3 mL of prepared solution and add it to about 27 g of newly prepared feed, thereby obtaining needed concentration through dilution by 10 times.

[4] = tested on: tobacco mosaic virus (TMV); experiment: Anti-TMV in vivo inactivation; set-up: species or system tobacco mosaic virus (host Nicotiana tabacum L.cv.Xanthi NN)
corn borers = details: concentration 600 mg/kg
Cercospora arachidicola = experiment: Fungicidal (bactericidal) activity in vitro, PDA colony diameter; format: cell-based; details: 50 mg/kg
cucumber fusarium wilt = experiment: as above; format: cell-based; details: 50 mg/kg
[5] = tested on: Colletotrichum orbiculare; experiment: as above; format: cell-based; details: 50 mg/kg
armyworms = format: in vivo; details: concentration 600 mg/kg
Rhizoctonia solani = experiment: Fungicidal (bactericidal) activity in vitro, PDA colony diameter; format: cell-based; details: 50 mg/kg
Rhizoctonia cereali = experiment: as above; format: cell-based; details: 50 mg/kg
Fusarium fujikuroi = experiment: as above; format: cell-based; details: 50 mg/kg
potato late blight = experiment: microbe, parasite or virus in culture; format: cell-based
Sclerotinia scleotiorum = experiment: Fungicidal (bactericidal) activity in vitro, PDA colony diameter; format: cell-based; details: 50 mg/kg
Botrytis cinerea = experiment: as above; format: cell-based; details: 50 mg/kg
Phytophthora capsici = experiment: as above; format: cell-based; details: 50 mg/kg

SMILES | Bactericidal activity (%) Macrophoma kawatsukai (Macrophoma kawatsukai) [%] | Bactericidal activity (%) Fusarium graminearumt (Fusarium graminearumt) [%] | Bactericidal activity (%) Bipolaria maydis (Bipolaria maydis) [%] | Relative inhibition rate (%) In vivo protection ([1]; treatment dose 100 μg/mL) [%] | Relative inhibition rate (%) In vivo protection ([1]; treatment dose 500 μg/mL) [%] | Bactericidal activity (%) Alternaria solani (Alternaria solani) [%] | Relative inhibition rate (%) In vivo therapy ([2]; treatment dose 100 μg/mL) [%] | Relative inhibition rate (%) In vivo therapy ([2]; treatment dose 500 μg/mL) [%] | Mosquito larvae Mortality (%) (mosquito larvae) | Relative inhibition rate (%) In vitro activity ([3]; treatment dose 100 μg/mL) [%] | Relative inhibition rate (%) In vitro activity ([3]; treatment dose 500 μg/mL) [%] | Cotton bollworm Mortality (%) (cotton bollworms) | Relative inhibition rate (%) In vivo inactivation ([4]; treatment dose 100 μg/mL) [%] | Relative inhibition rate (%) In vivo inactivation ([4]; treatment dose 500 μg/mL) [%] | Corn borer Mortality (%) (corn borers) | Bactericidal activity (%) Cercospora arachidicola (Cercospora arachidicola) [%] | Bactericidal activity (%) Cucumber fusarium wilt (cucumber fusarium wilt) [%] | Bactericidal activity (%) Colletotrichum orbiculare [5] [%] | Armyworm Mortality (%) (armyworms) | Bactericidal activity (%) Rhizoctonia solani (Rhizoctonia solani) [%] | further results
COc1ccccc1C=NNC(=O)[C@@H]1Cc2c([nH]c3ccccc23)[C@H](C)N1 [Ic-10, (1S, 3S)—N′-(2-methoxybenzylidene)-1-methyl-2,3,4,9-tetrahydropyridino [3,4-b] indol-3-formylhydrazine] | 88.9 | 72.4 | 56.0 | 0 | 34.8 | 45.0 | 10.9 | 36.4 | 50 | 0 | 38.5 | 30 | 0 | 43.2 | 30 | 23.5 | 26.9 | 40.7 | 25 | 32.9 | Bactericidal activity (%) Rhizoctonia cereali (Rhizoctonia cereali): 78.4%; Bactericidal activity (%) Fusarium fujikuroi (Fusarium fujikuroi): 21.4%; Bactericidal activity (%) potato late blight (potato late blight): 44.0%; Bactericidal activity (%) Sclerotinia scleotiorum (Sclerotinia scleotiorum): 64.7%; Bactericidal activity (%) Botrytis cinerea (Botrytis cinerea): 77.3%; Bactericidal activity (%) Phytophthora capsici (Phytophthora capsici): 63.2%
C[C@@H]1N[C@H](C(=O)NN=Cc2ccc3c(c2)OCCO3)Cc2c1[nH]c1ccccc21 [Ic-13] | 66.7 | 30.8 | 52.0 | 10.3 | 46 | 52.4 | 18.6 | 48.1 | 60 | 19.8 | 46.5 | 15 | 15.2 | 43.6 | 35 | 45.5 | 22.7 | 72.0 | 30 | 44.4 | Bactericidal activity (%) Rhizoctonia cereali (Rhizoctonia cereali): 89.2%; Bactericidal activity (%) Fusarium fujikuroi (Fusarium fujikuroi): 47.1%; Bactericidal activity (%) potato late blight (potato late blight): 30.4%; Bactericidal activity (%) Sclerotinia scleotiorum (Sclerotinia scleotiorum): 21.2%; Bactericidal activity (%) Botrytis cinerea (Botrytis cinerea): 66.7%; Bactericidal activity (%) Phytophthora capsici (Phytophthora capsici): 84.8%
C[C@@H]1N[C@H](C(=O)NN=Cc2ccc3cc(O)ccc3c2)Cc2c1[nH]c1ccccc21 [Ic-14, (1S, 3S)—N′-(6-hydroxynaphthalene-2-methylene)-1-methyl-2,3,4,9-tetrahydropyridino [3,4-b] indol-3-formylhydrazine] | 77.8 | 10.3 | 56.0 | 0 | 47.8 | 30.0 | 8.2 | 43.9 | 75 | 0 | 40.9 | 35 | 16.9 | 45.6 | 45 | 47.1 | 19.2 | 48.1 | 40 | 28.9 | Bactericidal activity (%) Rhizoctonia cereali (Rhizoctonia cereali): 86.3%; Bactericidal activity (%) Fusarium fujikuroi (Fusarium fujikuroi): 28.6%; Bactericidal activity (%) potato late blight (potato late blight): 44.0%; Bactericidal activity (%) Sclerotinia scleotiorum (Sclerotinia scleotiorum): 88.2%; Bactericidal activity (%) Botrytis cinerea (Botrytis cinerea): 72.7%; Bactericidal activity (%) Phytophthora capsici (Phytophthora capsici): 84.2%
